For ten compounds, IC50 results are on record in US7928121B2, “5-HT7 receptor antagonists” (Laboratorios Del Dr. Esteve, S.A., priority 2004, dated 2011).

Each structure is given as a SMILES string. Counter-ions that a name gives are not always drawn.

In this test the target is T1, Cloned Human Serotonin Receptor, Subtype 7 (h5HT7) (Homo sapiens, UniProt P34969).
T1 construct: purchased PerkinElmer 6120512; host or cells: CHO cells (membranes coated on Basic FlashPlate SMP200)
T1 sequence (P34969 whole entry): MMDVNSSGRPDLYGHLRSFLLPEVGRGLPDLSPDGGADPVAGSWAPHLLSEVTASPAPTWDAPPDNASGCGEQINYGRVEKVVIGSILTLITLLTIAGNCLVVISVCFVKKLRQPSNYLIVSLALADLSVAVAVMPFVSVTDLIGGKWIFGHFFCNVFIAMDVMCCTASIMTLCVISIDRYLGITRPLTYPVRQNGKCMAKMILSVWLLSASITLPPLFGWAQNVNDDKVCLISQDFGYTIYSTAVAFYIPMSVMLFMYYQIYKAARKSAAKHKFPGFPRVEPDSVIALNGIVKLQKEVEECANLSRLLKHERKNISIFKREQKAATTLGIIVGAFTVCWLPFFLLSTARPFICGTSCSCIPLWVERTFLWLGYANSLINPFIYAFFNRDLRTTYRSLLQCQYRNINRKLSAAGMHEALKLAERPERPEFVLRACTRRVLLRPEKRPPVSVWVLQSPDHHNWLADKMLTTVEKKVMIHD
Nature of the test: Radioligand binding assay, cloned human serotonin receptor subtype 7 (h5HT7) expressed in CHO cells, [125I]LSD, Flashplate. Conditions: radioligand [125I]LSD 0.82 nM, room temperature, 240 minutes, triplicate determinations, read-out: 5-HT7 IC-50. The protocol:
Biological Assays Radioligand Binding
Radioligand binding assays were performed using the Cloned Human Serotonin Receptor, Subtype 7 (h5HT7), expressed in CHO cells, coated on Flashplate (Basic FlashPlate Cat.: SMP200) from PerkinElmer (Cat.: 6120512). The protocol assay was essentially the recommended protocol in the Technical Data Sheet by PerkinEmer Life and Analytical Sciences. The Mass membrane protein/well was typically 12 μg and the Receptor/well was about 9-10 fmoles. The Flashplate were let equilibrate at room temperature for one hour before the addition of the components of the assay mixture. The binding buffer was: 50 mM Tris-HCl, pH 7.4, containing 10 mM MgCl2, 0.5 mM EDTA and 0.5% BSA. The radioligand was [^125I]LSD at a final concentration of 0.82 nM. Nonspecific binding was determined with 50 μM of Clozapine. The assay volume was 25 μl. TopSeal-A were applied onto Flashplate microplates and they were incubated at room temperature for 240 minutes in darkness. The radioactivity were quantified by liquid scintillation spectrophotometry (Wallac 1450 Microbeta Trilux) with a count delay of 4 minutes prior to counting and a counting time of 30 seconds per well. Competition binding data were analyzed by using the LIGAND program (Munson and Rodbard, LIGAND: A versatile, computerized approach for characterization of ligand-binding systems. Anal. Biochem. 107: 220-239, 1980) and assays were performed in triplicate determinations for each point.
As to `O=S(=O)(c1cccc2ccccc12)N1CCC(CN2CCc3ccccc3C2)CC1` [Compound 23, 2-[1-(Naphtalene-1-sulfonyl)-piperidin-4-ylmethyl]-1,2,3,4-tetrahydroisoquinoline hydrochloride], the IC50 stood at 83.4 nM. The same measure for `O=S(=O)(c1cc(Cl)c(F)cc1F)N1CCC(CN2CCc3ccccc3C2)CC1` [Compound 1, 2-[1-(5-Chloro-2,4-difluoro-benzenesulfonyl)-piperidin-4-ylmethyl]-1,2,3,4-tetrahydroisoquinoline hydrochloride]: 70.2 nM. Consider `Cc1cccc(S(=O)(=O)N2CCC(CN3CCc4ccccc4C3)CC2)c1` [Compound 5, 2-[1-(Toluene-3-sulfonyl)-piperidin-4-ylmethyl]-1,2,3,4-tetrahydroisoquinoline hydrochloride], for which the IC50 stood at 63 nM. The same measure for `COc1cc2c(cc1OC)CN(CC1CCN(S(=O)(=O)c3ccccc3Cl)CC1)CC2` [Compound 77, 2-[1-(2-Chlorobenzene-sulfonyl)-piperidin-4-ylmethyl]-6,7-dimethoxy-1,2,3,4-tetrahydroisoquinoline hydrochloride]: 41.8 nM; for `COc1cc2c(cc1OC)CN(CC1CCN(S(=O)(=O)c3cc(Cl)ccc3Cl)CC1)CC2` [Compound 85, 2-[1-(2,5-Dichloro-benzenesulfonyl)-piperidin-4-ylmethyl]-6,7-dimethoxy-1,2,3,4-tetrahydro-isoquinoline hydrochloride]: 60.7 nM. For `O=S(=O)(c1cc(Cl)ccc1Cl)N1CCC(CN2CCc3ccccc3C2)CC1` [Compound 3, 2-[1-(2,5-Dichloro-benzenesulfonyl)-piperidin-4-ylmethyl]-1,2,3,4-tetrahydro-isoquinoline hydrochloride] the value was 76.4 nM; for `O=S(=O)(c1ccccc1Cl)N1CCC(CN2CCc3ccccc3C2)CC1` [Compound 2, 2-[1-(2-Chloro-benzenesulfonyl)-piperidin-4-ylmethyl]-1,2,3,4-tetrahydro-isoquinoline hydrochloride], 28.4 ± 18.2 nM; for `O=S(=O)(c1cc(F)c(F)cc1Cl)N1CCC(CN2CCc3ccccc3C2)CC1` [Compound 6, 2-[1-(2-Chloro-4,5-difluoro-benzene-sulfonyl)-piperidin-4-ylmethyl]-1,2,3,4-tetrahydroisoquinoline hydrochloride], 18.2 ± 3.7 nM. For `O=S(=O)(c1ccccc1Br)N1CCC(CN2CCc3ccccc3C2)CC1` [Compound 22, 2-[1-(2-Bromo-benzenesulfonyl)-piperidin-4-ylmethyl]-1,2,3,4-tetrahydro-isoquinoline hydrochloride], the IC50 turned out to be 16.8 ± 8 nM.

For `Cc1cc(S(=O)(=O)N2CCC(CN3CCc4ccccc4C3)CC2)c(C)cc1Cl` [Compound 16, 2-[1-(4-Chloro-2,5-dimethyl-benzenesulfonyl)-piperidin-4-ylmethyl]-1,2,3,4-tetrahydroisoquinoline hydrochloride], the IC50 was 36.1 ± 16 nM.
